The record followed here is US9949948B2, “Artemisinin and its derivatives for use in the treatment of trauma haemorrhage and associated conditions” (Queen Mary University of London, priority 2011, dated 2018).

Holding throughout (type): in vivo, Wistar rats
One assay relates to burn injury rats. Description: Organ injury and dysfunction induced by burn injury in the rat. The settings on record: 3 mg/kg i.v. 30 min prior to and 30 min after burn injury. The protocol: Twenty-two male Wistar rats (Harlan, Udine, Italy) weighing 300 to 350 g were anaesthetised with sodium pentobarbital (Eutasil™, 60 mg/kg i.p.; Sanofi Veterinária, Algés, Portugal), which was supplemented as required. Anaesthetised rats were shaved (dorsum and abdomen) and placed onto a thermostatically controlled heating mat (Harvard Apparatus Ltd, Kent, U.K.) and body temperature maintained at 37±1° C. by means of a rectal probe attached to a homeothermic blanket. A tracheotomy was performed to maintain airway patency and to facilitate spontaneous respiration. Thirty minutes prior to burn injury, rats were treated with vehicle or drug, as described in section 3.2. To induce burn injury, a 60% third degree skin burn was induced by immersing dorsal shaved skin in 99° C. water for 10 s using a synthetic foam template. The rats were then dried and placed over the heating mat. Rats were sacrificed at 6 hours after burn injury by overdose of the anaesthetic and serum samples obtained for analysis of organ injury and dysfunction.
Sham-operated rats underwent identical surgical procedures but without burn injury (immersed in room temperature water).

The subject of assay [1] is rats subjected to regional myocardial ischaemia and reperfusion. The assay is described as follows: Regional myocardial ischaemia and reperfusion, artesunate and dihydroartemisinin. The protocol:
(§1) Rats were anaesthetised with thiopentone sodium (Intraval® 120 mg/kg i.p.). Anaesthesia was maintained by supplementary injections of thiopentone sodium as required. The trachea was cannulated and the animals were ventilated with a Harvard ventilator (inspiratory oxygen concentration: 30%; 70 strokes/min, tidal volume: 8-10 ml/kg). Body temperature was maintained at 37±1° C. with the aid of a rectal probe thermometer attached to a homeothermic blanket unit (Harvard Apparatus Ltd., Edenbridge, Kent. U.K.). […] The right jugular vein was then cannulated for the administration of drugs and saline. A para-sternal thoracotomy was then performed, using an Electrosurgery device to cauterize the intercostals arteries before cutting through three ribs. The chest was retracted and pericardium dissected from the heart. The left anterior descending (LAD) coronary artery was isolated and a snare occluder was placed around the LAD. The retractor was then removed and the animal was allowed to stabilise for 15 min.
(§2) The occluder was tightened at time 0. After 25 min of LAD-occlusion, the occluder was released to allow reperfusion of the previously ischemic myocardium (2 h). Haemodynamic parameters were continuously monitored. Baseline readings were taken prior to treatment, and, myocardial ischaemia reperfusion (IR) injury. The pressure rate index (PRI), a relative indicator of myocardial oxygen consumption was calculated as a product of the MAP (mmHg) and HR (beats/minute-bpm) and expressed in mm Hg bpm×10^−3.
(§3) At the end of the 2 h reperfusion period, the LAD was re-occluded and 1 ml of Evans Blue dye (2% w/v) was injected into the animal, via the jugular vein. The Evans Blue dye stains the tissue it can circulate through, therefore the non-perfused vascular (occluded) tissue remains un-coloured. Each animal was killed with an over-dose of anaesthetic, the heart excised, and excess dye washed off. […] The ischaemic and non-ischaemic tissue was weighed, and the AAR expressed as a percentage of the left ventricle. The tissue from the AAR was cut into small pieces and incubated with p-nitroblue tetrazolium (NBT, 0.5 mg/ml) for 30 min at 37° C. NBT is a reducing agent that reacts with dehydrogenases present in viable (non-infarcted) tissue to produce a dark blue formazan. Infarcted tissue (non-viable) will not have dehydrogenase activity and will therefore fail to stain. The stained tissue was separated from the infarcted tissue, weighed, and the infarct size expressed as a percentage of the AAR.
(§4) Sham-operated rats were subjected to surgical procedure without myocardial ischaemia and reperfusion.

Assay [2] has the same test system. Description: Regional myocardial ischaemia and reperfusion, vehicle 5% sodium bicarbonate. The following applies: for infarct size (percentage of the AAR): control 57.6±2.1%; for area at risk: compared to vehicle treated rats. As for the experimental part: as §1, with “Kent,” for “Kent.”
as §2, §3, §4

Where [3] appears, read: 1 mg/kg i.v. upon reperfusion, vs control.
The mark [4] stands for this setting: bolus 1 mg/kg upon reperfusion, P>0.05 vs Control.
Where [5] appears, read: bolus 0.3, 1 or 10 mg/kg upon reperfusion, P>0.05 vs Control.

As to `C[C@H]1[C@H](OC(=O)CCC(=O)O)O[C@@H]2O[C@@]3(C)CC[C@H]4[C@H](C)CC[C@@H]1[C@@]24OO3` [artesunate], the “rise in serum creatinine” value with burn injury rats (6 h after burn, P<0.05) is reported as “significantly attenuated”. The “rise in serum urea” value in the assay on burn injury rats (6 h after burn, P<0.05) is listed as “significantly attenuated”. Besides, the “rise in serum ALT” value in the assay on burn injury rats (P>0.05) was “no significant effect”. In the assay with burn injury rats (P>0.05), the “rise in serum AST” value is “no significant effect”. Besides, the “infarct size (percentage of the AAR)” value amounted to 36.0±1.1% in assay [1] (1 mg/kg i.v. bolus upon reperfusion, from 59.8±3.2, P<0.05); 44.0±2.61% in assay [2] (0.3 mg/kg i.v. bolus upon reperfusion); 42.6±1.1% in assay [2] (1 mg/kg i.v. upon reperfusion, P<0.05). Moreover, the Infarct size reduction in assay [1] (setting [3]) and in assay [2] (setting [3]) was 40% in each case. For the same compound, the area at risk result is “no significant effect” in assay [1] (1 mg/kg, compared to vehicle treated rats); “no significant effect” in assay [2] (0.3 mg/kg); “no significant effect” in assay [2] (1 mg/kg); “no significant effect” in assay [2] (10 mg/kg). In addition, the “fall in mean arterial blood pressure caused by myocardial ischaemia and reperfusion” value in assay [1] (setting [4]) and in assay [2] (setting [5]) was “did not attenuate” throughout. Besides, the heart rate result in assay [1] (setting [4]) and in assay [2] (setting [5]) was “did not have a significant effect” each time. The infarct size result in assay [2] (10 mg/kg i.v. upon reperfusion, P>0.05) is on record as “no significant effect”.
